Test results as given in patent publication US5210193A, “Piperazine derivatives” (American Cyanamid Company, priority 1990, dated 1993).
Values after ≈ are worked out from the molar mass of the structure shown. Values joined by “and” are separate entries in the source; they are usually repeats but may differ in a detail not shown here. Equal entries are not always repeated. Structures can show the parent of a compound that is named as a salt. Where two headings read alike, the source gives them in different places.

Columns and labels:
Assay in all cases: in vitro antibacterial MIC, agar plate dilution
Type in all cases: cell-based
[1] = tested on: Serratia marcescens CMC 83-74; details: 35° C.
Summary of the method: (§1)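 Minimal inhibitory concentrations came from agar plate dilution in Mueller-Hinton medium. Each organism was delivered at roughly 10^4 CFU by Steers replicator. Plates were read for visible growth after 18 hours at 35° C, values in mcg/ml.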

[2] = tested on: Serratia marcescens VGH 84-30; details: Serratia marcescens, VGH8430, 18 h, 35° C., read-out: MIC
Summary of the method: as §1

[3] = tested on: Pseudomonas aeruginosa CMC 83-20; details: 35° C.
Summary of the method: as §1

[4] = tested on: Staphylococcus aureus ATTC 29213; details: 35° C.
Summary of the method: as §1

[5] = tested on: Providencia stuarti CMC 83-3; details: 35° C.
Summary of the method: as §1

[6] = tested on: Pseudomonas aeruginosa K 84-16; details: 35° C.
Summary of the method: as §1

[7] = tested on: Staphylococcus aureus VGH 84-45; details: 35° C.
Summary of the method: as §1

[8] = tested on: Serratia marcescens K 84-18; details: 18 hours, 35° C., monohydrochloride
Summary of the method: as §1

[9] = tested on: Streptococcus faecalis VGH 84-65; details: Enterococcus faecalis, VGH8465, 18 h, 35° C., read-out: MIC
Summary of the method: as §1

[10] = tested on: Morganella morganii CMC 84-37; details: 35° C.
Summary of the method: as §1

[11] = tested on: Proteus rettgeri CMC 84-41; details: 18 hours, 35° C., monohydrochloride
Summary of the method: as §1

[12] = tested on: Staphylococcus aureus Smith; details: 35° C.
Summary of the method: as §1

[13] = tested on: Enterobacter cloacae MOR 84-30; details: 35° C.
Summary of the method: as §1

[14] = tested on: Staphylococcus aureus K 82-26; details: 35° C.
Summary of the method: as §1

[15] = tested on: Escherichia coli ATCC 25922; details: 35° C.
Summary of the method: as §1

[16] = tested on: Streptococcus faecalis UCI 85-30; details: 35° C.
Summary of the method: as §1

[17] = tested on: Pseudomonas aeruginosa VGH 84-3; details: 35° C.
Summary of the method: as §1

[18] = tested on: Streptococcus faecalis UCI 85-19; details: 35° C.
Summary of the method: as §1

Escherichia coli LL 311 = details: Escherichia coli, LL311, 18 h, 35° C., read-out: MIC
Summary of the method: as §1

[19] = tested on: Serratia marcescens MOR 84-41; details: 35° C.
Summary of the method: as §1

[20] = tested on: Pseudomonas aeruginosa LL-1244; details: Pseudomonas aeruginosa, LL1244, 18 h, 35° C., read-out: MIC
Summary of the method: as §1

[21] = tested on: Enterobacter cloacae K 84-10; details: 35° C.
Summary of the method: as §1

[22] = tested on: Morganella morganii CMC 84-38; details: 35° C.
Summary of the method: as §1

[23] = tested on: Streptococcus faecalis CMC 83-120; details: 35° C.
Summary of the method: as §1

[24] = tested on: Pseudomonas aeruginosa VGH 84-4; details: Pseudomonas aeruginosa, VGH844, 18 h, 35° C., read-out: MIC
Summary of the method: as §1

[25] = tested on: Klebsiella pneumoniae CMC 84-31; details: 35° C.
Summary of the method: as §1

[26] = tested on: Staphylococcus aureus VGH 84-47; details: 35° C.
Summary of the method: as §1

[27] = tested on: Morganella morganii VHG 84-12; details: Morganella morganii VHG 84-12 (VGH 84-12 for Example 131), 35° C.
Summary of the method: as §1

[28] = tested on: Staphylococcus aureus CMC 83-131; details: 35° C.
Summary of the method: as §1

[29] = tested on: Escherichia coli VGH 84-19; details: 35° C.
Summary of the method: as §1

[30] = tested on: Proteus rettgeri IO 83-21; details: 35° C.
Summary of the method: as §1

[31] = tested on: Enterobacter cloacae VGH 84-39; details: 35° C.
Summary of the method: as §1

[32] = tested on: Streptococcus faecalis VGH 84-69; details: 35° C.
Summary of the method: as §1

[33] = tested on: Escherichia coli MOR 84-20; details: 35° C.
Summary of the method: as §1

[34] = tested on: Klebsiella pneumoniae MOR 84-24; details: 35° C.
Summary of the method: as §1

[35] = tested on: Klebsiella pneumoniae IO 83-5; details: 35° C.
Summary of the method: as §1

Citrobacter div. K 82-24 = details: Citrobacter, DIV.K8224, 18 h, 35° C., read-out: MIC
Summary of the method: as §1

[36] = tested on: Morganella morganii MOR 84-45; details: 35° C.
Summary of the method: as §1

[37] = tested on: Escherichia coli CMC 84-50; details: 35° C.
Summary of the method: as §1

[38] = tested on: Escherichia coli CMC 84-11; details: 18 hours, 35° C., monohydrochloride
Summary of the method: as §1

Q: What does the source list for `O=C(O)c1cn(C2CC2)c2cc(N3CCNC(c4ccco4)C3)c(F)cc2c1=O` (stereo not drawn) [Example 99, 1-Cyclopropyl-6-fluoro-1,4-dihydro-4-oxo-7-[3-(2-furanyl) -1-piperazinyl-3-quinolinecarboxylic acid, monohydrochloride]?
A: MIC ([1]; 18 hours, monohydrochloride): 8 µg/mL; MIC [2]: 8 µg/mL; MIC ([3]; 18 hours, monohydrochloride): 4 µg/mL; MIC ([4]; 18 hours, monohydrochloride): 0.03 µg/mL; MIC ([5]; 18 hours, monohydrochloride): 8 µg/mL; MIC ([6]; 18 hours, monohydrochloride): 4 µg/mL; MIC ([7]; Staphylococcus aureus, VGH8445, 18 h, read-out: MIC): < 0.015 µg/mL; MIC [8]: 0.5 µg/mL; MIC [9]: 0.5 µg/mL; MIC ([10]; Morganella morganii, CMC8437, 18 h, read-out: MIC): 0.12 µg/mL; MIC [11]: 0.12 µg/mL; MIC ([12]; Staphylococcus aureus, 18 h, read-out: MIC): < 0.015 µg/mL; MIC ([13]; 18 hours, monohydrochloride): 0.25 µg/mL; MIC ([14]; 18 hours, monohydrochloride): 0.03 µg/mL; MIC ([15]; 18 hours, monohydrochloride): 0.06 µg/mL and 0.12 µg/mL; MIC ([16]; 18 hours, monohydrochloride): 0.5 µg/mL; MIC ([17]; 18 hours, monohydrochloride): 16 µg/mL; MIC ([18]; Enterococcus faecalis, UCI8519, 18 h, read-out: MIC): 0.5 µg/mL; MIC (Escherichia coli LL 311): 0.03 µg/mL; MIC ([19]; 18 hours, monohydrochloride): 0.25 µg/mL; MIC [20]: 4 µg/mL; MIC ([21]; 18 hours, monohydrochloride): 0.06 µg/mL; MIC ([22]; 18 hours, monohydrochloride): 0.12 µg/mL; MIC ([23]; 18 hours, monohydrochloride): 0.5 µg/mL; MIC [24]: 2 µg/mL

Q: With `O=C(O)c1cn(C2CC2)c2cc(N3CCNC(c4cc[nH]c4)C3)c(F)cc2c1=O` (stereo not drawn) [Example 119] as the compound, how does the MIC ([1]; Serratia marcescens, CMC8374, 18 h, read-out: MIC) read?
A: 16 µg/mL (≈ 40.4 µM)

Q: And the MIC ([3]; Pseudomonas aeruginosa, CMC8320, 18 h, read-out: MIC)?
A: 2 µg/mL (≈ 5.05 µM)

Q: What about the MIC ([4]; Staphylococcus aureus, ATTC29213, 18 h, read-out: MIC) of the same compound?
A: 0.12 µg/mL (≈ 0.303 µM)

Q: And the MIC ([25]; Klebsiella pneumoniae, CMC8431, 18 h, read-out: MIC)?
A: 0.06 µg/mL (≈ 0.151 µM)

Q: What about the MIC ([26]; Staphylococcus aureus, VGH8447, 18 h, read-out: MIC) of the same compound?
A: 0.12 µg/mL (≈ 0.303 µM)

Q: What about the MIC ([5]; Providencia, CMC833, 18 h, read-out: MIC) of the same compound?
A: 4 µg/mL (≈ 10.1 µM)

Q: And the MIC ([6]; Pseudomonas aeruginosa, K8416, 18 h, read-out: MIC)?
A: 4 µg/mL (≈ 10.1 µM)

Q: And the MIC ([27]; Morganella morganii, VHG8412, 18 h, read-out: MIC)?
A: 0.5 µg/mL (≈ 1.26 µM)

Q: What about the MIC ([28]; Staphylococcus aureus, CMC83131, 18 h, read-out: MIC) of the same compound?
A: 0.25 µg/mL (≈ 0.631 µM)

Q: And the MIC ([29]; Escherichia coli, VGH8419, 18 h, read-out: MIC)?
A: 0.015 µg/mL (≈ 0.0378 µM)

Q: What about the MIC ([30]; Providencia rettgeri, IO8321, 18 h, read-out: MIC) of the same compound?
A: 0.12 µg/mL (≈ 0.303 µM)

Q: What about the MIC ([31]; Enterobacter cloacae, VGH8439, 18 h, read-out: MIC) of the same compound?
A: 0.06 µg/mL (≈ 0.151 µM)

Q: What about the MIC ([32]; Enterococcus faecalis, VGH8469, 18 h, read-out: MIC) of the same compound?
A: 0.5 µg/mL (≈ 1.26 µM)

Q: And the MIC ([33]; Escherichia coli, MOR8420, 18 h, read-out: MIC)?
A: 0.015 µg/mL (≈ 0.0378 µM)

Q: What about the MIC ([34]; Klebsiella pneumoniae, MOR8424, 18 h, read-out: MIC) of the same compound?
A: 0.12 µg/mL (≈ 0.303 µM)

Q: And the MIC ([35]; Klebsiella pneumoniae, IO835, 18 h, read-out: MIC)?
A: 0.12 µg/mL (≈ 0.303 µM)

Q: And the MIC ([13]; Enterobacter cloacae, MOR8430, 18 h, read-out: MIC)?
A: 0.5 µg/mL (≈ 1.26 µM)

Q: What about the MIC ([14]; Staphylococcus aureus, K8226, 18 h, read-out: MIC) of the same compound?
A: 0.5 µg/mL (≈ 1.26 µM)

Q: And the MIC ([15]; Escherichia coli, ATCC25922, 18 h, read-out: MIC)?
A: 0.008 µg/mL (≈ 0.0202 µM)

Q: What about the MIC ([16]; Enterococcus faecalis, UCI8530, 18 h, read-out: MIC) of the same compound?
A: 1 µg/mL (≈ 2.52 µM)

Q: And the MIC ([17]; Pseudomonas aeruginosa, VGH843, 18 h, read-out: MIC)?
A: 8 µg/mL (≈ 20.2 µM)

Q: What about the MIC (Citrobacter div. K 82-24) of the same compound?
A: 0.03 µg/mL (≈ 0.0757 µM)

Q: What about the MIC ([19]; Serratia marcescens, MOR8441, 18 h, read-out: MIC) of the same compound?
A: 0.5 µg/mL (≈ 1.26 µM)

Q: And the MIC ([36]; Morganella morganii, MOR8445, 18 h, read-out: MIC)?
A: 0.03 µg/mL (≈ 0.0757 µM)

Q: What about the MIC ([21]; Enterobacter cloacae, K8410, 18 h, read-out: MIC) of the same compound?
A: 0.3 µg/mL (≈ 0.757 µM)

Q: What about the MIC ([37]; Escherichia coli, CMC8450, 18 h, read-out: MIC) of the same compound?
A: 0.03 µg/mL (≈ 0.0757 µM)

Q: What about the MIC ([22]; Morganella morganii, CMC8438, 18 h, read-out: MIC) of the same compound?
A: 0.06 µg/mL (≈ 0.151 µM)

Q: And the MIC ([23]; Enterococcus faecalis, CMC83120, 18 h, read-out: MIC)?
A: 0.2 µg/mL (≈ 0.505 µM)

Q: What does the source list for `O=C(O)c1cn(C2CC2)c2cc(N3CCNC(c4ccccn4)C3)c(F)cc2c1=O` (stereo not drawn) [Example 129, 1-Cyclopropyl-6-fluoro-1,4-dihydro-4-oxo-7-[3-(2-pyridinyl) -1-piperazinyl]-3-quinolinecarboxylic acid, monohydrochloride]?
A: MIC ([1]; 18 hours, monohydrochloride): 16 µg/mL; MIC ([25]; 18 hours, monohydrochloride): 0.25 µg/mL; MIC ([26]; 18 hours, monohydrochloride): 0.12 µg/mL; MIC [38]: 0.03 µg/mL; MIC ([5]; 18 hours, monohydrochloride): 16 µg/mL; MIC ([27]; 18 hours, monohydrochloride): 0.5 µg/mL; MIC ([7]; 18 hours, monohydrochloride): 0.03 µg/mL; MIC ([28]; 18 hours, monohydrochloride): 0.25 µg/mL; MIC ([29]; 18 hours, monohydrochloride): 0.12 µg/mL; MIC ([30]; 18 hours, monohydrochloride): 0.5 µg/mL; MIC [8]: 0.25 µg/mL; MIC ([31]; 18 hours, monohydrochloride): 0.25 µg/mL; MIC ([32]; 18 hours, monohydrochloride): 2 µg/mL; MIC ([33]; 18 hours, monohydrochloride): 0.12 µg/mL; MIC ([34]; 18 hours, monohydrochloride): 0.5 µg/mL; MIC ([10]; 18 hours, monohydrochloride): 0.12 µg/mL; MIC ([35]; 18 hours, monohydrochloride): 0.5 µg/mL; MIC ([12]; 18 hours, monohydrochloride): 0.03 µg/mL; MIC ([13]; 18 hours, monohydrochloride): 0.5 µg/mL; MIC ([14]; 18 hours, monohydrochloride): 2 µg/mL; MIC ([15]; 18 hours, monohydrochloride): 0.03 µg/mL and 0.06 µg/mL; MIC ([16]; 18 hours, monohydrochloride): 4 µg/mL; MIC ([18]; 18 hours): 2 µg/mL; MIC ([19]; 18 hours, monohydrochloride): 0.5 µg/mL; MIC ([36]; 18 hours, monohydrochloride): 0.25 µg/mL; MIC ([37]; 18 hours, monohydrochloride): 0.25 µg/mL; MIC ([22]; 18 hours, monohydrochloride): 0.25 µg/mL; MIC ([23]; 18 hours, monohydrochloride): 2 µg/mL
